# Source: ChEMBL document CHEMBL3108728, “Anti-inflammatory activity of rhamnetin and a model of its binding to c-Jun NH2-terminal kinase 1 and p38 MAPK” (J Nat Prod, 2014)
# The source made the active and inactive calls. The calls are words filed in the database; no cut-off is given here.
# Legend:
# [1] = target: Mitogen-activated protein kinase 8 (Homo sapiens) (UniProt P45983); assay: Binding affinity to human C-terminal His6-tagged JNK1alpha1 (1 to 364) expressed in Escherichia coli by spectrofluorometry
# Chain of Mitogen-activated protein kinase 8 (Homo sapiens) (P45983 whole entry): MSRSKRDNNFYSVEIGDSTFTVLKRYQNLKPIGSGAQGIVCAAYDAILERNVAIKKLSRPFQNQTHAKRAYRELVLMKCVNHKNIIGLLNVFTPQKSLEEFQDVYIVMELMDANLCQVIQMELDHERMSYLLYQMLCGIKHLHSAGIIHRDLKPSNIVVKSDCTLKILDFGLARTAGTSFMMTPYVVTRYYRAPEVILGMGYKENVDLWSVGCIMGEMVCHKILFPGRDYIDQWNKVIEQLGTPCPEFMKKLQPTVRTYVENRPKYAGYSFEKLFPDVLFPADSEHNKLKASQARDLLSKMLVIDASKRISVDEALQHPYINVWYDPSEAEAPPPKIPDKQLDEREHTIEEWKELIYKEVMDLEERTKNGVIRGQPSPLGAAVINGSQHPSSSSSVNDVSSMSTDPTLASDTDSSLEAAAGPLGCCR
# [2] = target: T1, MAP kinase p38 (Homo sapiens) (UniProt O15264+Q15759+Q16539+P53778); assay: Binding affinity to human p38 MAPK expressed in Escherichia coli by spectrofluorometry
# [3] = system: RAW264.7; assay: Antiinflammatory activity against mouse RAW264.7 cells assessed as inhibition of LPS-induced TNFalpha production at 20 uM after 24 hrs by ELISA; type: functional; settings: RAW264.7, 24 h
# [4] = system: RAW264.7; assay: Antiinflammatory activity against mouse RAW264.7 cells assessed as reduction of LPS-induced mMIP-2 mRNA expression at 25 uM after 3 hrs by RT-PCR analysis relative to untreated control; type: functional, cell-based
# [5] = target: T1, MAP kinase p38 (Homo sapiens); assay: Binding affinity to human p38 MAPK expressed in Escherichia coli by circular dichroism method
# [6] = system: RAW264.7; assay: Antiinflammatory activity against mouse RAW264.7 cells assessed as reduction of LPS-induced NO production at 20 uM after 24 hrs; type: functional; design: scale not given: the % may be the effect or the level left
# [7] = system: RAW264.7; assay: Antiinflammatory activity against mouse RAW264.7 cells assessed as inhibition of LPS-induced COX2 protein expression at 20 uM by Western blotting analysis; type: functional
# [8] = target: T2, MAP kinase p38 (Mus musculus) (UniProt P47811+O08911+Q9WUI1+Q9Z1B7); assay: Inhibition of LPS-induced p38 MAPK phosphorylation in mouse RAW264.7 cells at 20 uM by Western blotting analysis; type: cell-based
# [9] = system: RAW264.7; assay: Antiinflammatory activity against mouse RAW264.7 cells assessed as reduction of LPS-induced NO production at 10 uM after 24 hrs; type: functional; design: scale not given: the % may be the effect or the level left
# [10] = target: Mitogen-activated protein kinase 8 (Homo sapiens) (UniProt P45983); assay: Binding affinity to human C-terminal His6-tagged JNK1alpha1 (1 to 364) expressed in Escherichia coli by circular dichroism method
# [11] = target: Mitogen-activated protein kinase 3 (Mus musculus) (UniProt Q63844); assay: Inhibition of LPS-induced ERK phosphorylation in mouse RAW264.7 cells at 20 uM by Western blotting analysis; type: cell-based
# Chain of Mitogen-activated protein kinase 3 (Mus musculus) (Q63844 whole entry): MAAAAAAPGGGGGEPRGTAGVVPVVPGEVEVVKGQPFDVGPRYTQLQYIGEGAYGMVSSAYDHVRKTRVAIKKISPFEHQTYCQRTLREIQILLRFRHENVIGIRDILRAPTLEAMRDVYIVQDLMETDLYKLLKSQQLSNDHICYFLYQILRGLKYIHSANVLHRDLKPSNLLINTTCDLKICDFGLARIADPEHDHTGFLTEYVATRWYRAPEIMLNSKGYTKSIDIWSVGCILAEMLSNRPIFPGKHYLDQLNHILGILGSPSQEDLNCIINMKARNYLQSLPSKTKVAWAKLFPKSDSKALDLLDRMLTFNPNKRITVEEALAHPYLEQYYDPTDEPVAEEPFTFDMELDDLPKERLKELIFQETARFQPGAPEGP
# [12] = system: RAW264.7; assay: Antiinflammatory activity against mouse RAW264.7 cells assessed as inhibition of LPS-induced TNFalpha production at 10 uM after 24 hrs by ELISA; type: functional; settings: RAW264.7, 24 h
# [13] = system: RAW264.7; assay: Antiinflammatory activity against mouse RAW264.7 cells assessed as reduction of LPS-induced mTNFalpha mRNA expression at 25 uM after 3 hrs by RT-PCR analysis relative to untreated control; type: functional, cell-based
# [14] = system: RAW264.7; assay: Antiinflammatory activity against mouse RAW264.7 cells assessed as reduction of LPS-induced mMIP-2 level at 10 uM after 24 hrs by ELISA relative to untreated control; type: functional; design: scale not given: the % may be the effect or the level left
# [15] = target: T3, Monocyte differentiation antigen CD14 (Mus musculus) (UniProt P10810); assay: Inhibition of CD14 in mouse RAW264.7 cells at 20 uM by Western blotting analysis; type: cell-based
# T3 sequence (whole entry): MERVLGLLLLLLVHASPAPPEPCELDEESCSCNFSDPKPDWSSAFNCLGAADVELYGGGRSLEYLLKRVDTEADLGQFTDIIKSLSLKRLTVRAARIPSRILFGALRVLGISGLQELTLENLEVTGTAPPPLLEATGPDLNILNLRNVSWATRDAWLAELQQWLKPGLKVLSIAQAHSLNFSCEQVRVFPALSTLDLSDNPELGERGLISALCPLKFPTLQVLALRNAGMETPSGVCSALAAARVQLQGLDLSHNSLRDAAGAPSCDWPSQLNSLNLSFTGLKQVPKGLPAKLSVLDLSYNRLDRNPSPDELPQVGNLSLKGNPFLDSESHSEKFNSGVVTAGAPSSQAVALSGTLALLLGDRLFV
# [16] = target: Mitogen-activated protein kinase 8 (Mus musculus) (UniProt Q91Y86); assay: Inhibition of IFNgamma-induced JNK phosphorylation in mouse RAW264.7 cells at 20 uM by Western blotting analysis relative to untreated control; type: cell-based
# Chain of Mitogen-activated protein kinase 8 (Mus musculus) (Q91Y86 whole entry): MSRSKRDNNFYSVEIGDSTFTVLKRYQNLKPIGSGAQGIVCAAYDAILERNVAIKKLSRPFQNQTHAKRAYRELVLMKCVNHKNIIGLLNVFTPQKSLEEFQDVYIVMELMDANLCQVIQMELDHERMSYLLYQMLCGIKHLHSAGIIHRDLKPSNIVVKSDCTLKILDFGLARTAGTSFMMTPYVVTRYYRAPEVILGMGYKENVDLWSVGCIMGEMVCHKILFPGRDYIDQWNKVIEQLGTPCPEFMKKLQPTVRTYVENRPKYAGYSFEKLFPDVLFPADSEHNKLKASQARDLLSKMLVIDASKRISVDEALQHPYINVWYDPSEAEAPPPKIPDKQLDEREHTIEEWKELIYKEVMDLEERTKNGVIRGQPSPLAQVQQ
# [17] = system: RAW264.7; assay: Antiinflammatory activity against mouse RAW264.7 cells assessed as reduction of LPS-induced mMIP-2 level at 20 uM after 24 hrs by ELISA relative to untreated control; type: functional; design: scale not given: the % may be the effect or the level left
# [18] = system: RAW264.7; assay: Antiinflammatory activity against mouse RAW264.7 cells assessed as reduction of IFNgamma-induced NO production at 10 uM after 24 hrs; type: functional; design: scale not given: the % may be the effect or the level left
# [19] = system: RAW264.7; assay: Antiinflammatory activity against mouse RAW264.7 cells assessed as reduction of LPS-induced mMIP-1 mRNA expression at 25 uM after 3 hrs by RT-PCR analysis relative to untreated control; type: functional; design: scale not given: the % may be the effect or the level left
# [20] = target: Mitogen-activated protein kinase 8 (Mus musculus) (UniProt Q91Y86); assay: Inhibition of LPS-induced JNK phosphorylation in mouse RAW264.7 cells at 20 uM by Western blotting analysis; type: cell-based
# [21] = system: RAW264.7; assay: Cytotoxicity against mouse RAW264.7 cells up to 12.5 uM after 24 hrs by MTT assay relative to untreated control; type: cell-based; settings: raw264.7, 24 h
# [22] = Cytotoxicity against mouse RAW264.7 cells assessed as cell survival at 100 uM after 24 hrs by MTT assay relative to untreated control; type: cell-based; settings: read-out: Survival
# [23] = system: HaCaT; assay: Cytotoxicity against human HaCaT cells at 100 uM after 24 hrs by MTT assay relative to untreated control; type: cell-based
# [24] = target: Mitogen-activated protein kinase 3 (Mus musculus) (UniProt Q63844); assay: Inhibition of IFNgamma-induced ERK phosphorylation in mouse RAW264.7 cells at 20 uM by Western blotting analysis relative to untreated control; type: cell-based
# [25] = system: RAW264.7; assay: Antiinflammatory activity against mouse RAW264.7 cells assessed as reduction of IFNgamma-induced NO production at 20 uM after 24 hrs; type: functional; design: scale not given: the % may be the effect or the level left
# [26] = target: T2, MAP kinase p38 (Mus musculus); assay: Inhibition of IFNgamma-induced p38 MAPK phosphorylation in mouse RAW264.7 cells at 20 uM by Western blotting analysis relative to untreated control; type: cell-based
smiles,measurement,setting,value
COc1cc(O)c2c(=O)c(O)c(-c3ccc(O)c(O)c3)oc2c1 [RHAMNETIN],K,[1],9.7 ×10⁸ /M
same,K,[2],2.31 ×10⁷ /M
same,inhibition at 20 µM,[3],63%
same,Activity,[4],Active
same,Activity,[5],Active
same,Activity,[6],74%
same,inhibition at 20 µM,[7],76%
same,inhibition,[8],51%
same,Activity,[9],62%
same,Activity,[10],Active
same,inhibition,[11],27%
same,inhibition at 10 µM,[12],54%
same,Activity,[13],Active
same,Activity,[14],42%
same,inhibition,[15],inactive
same,inhibition,[16],92%
same,Activity,[17],77%
same,Activity,[18],73.2%
same,Activity,[19],96.2%
same,inhibition,[20],64%
same,Activity,[21],Non-toxic
same,"viability at 24 h, 100 µM",[22],> 55%
same,Activity,[23],Non-toxic
same,inhibition,[24],38%
same,Activity,[25],91.5%
same,inhibition,[26],58%
